Source: patent EP0969854B1, “INHIBITION OF SIGNAL TRANSDUCTION BY THE BINDING OF NON-PHOSPHORYLATED COMPOSITIONS” (GEORGETOWN UNIVERSITY, priority 1996, dated 2006)
Bridge positions count the residues as written; N and C are the ends. Ends that are not written are not given here.

Columns and labels:
Grb2 SH2 domain = assay: Surface plasmon resonance (Biacore): inhibition of GST-Grb2 binding to immobilised SHC phosphopeptide; conditions: for inhibition of Grb2 binding to the SHC phosphopeptide: peptide at 50 µM; for inhibiting activity: peptide at 500 µM
Excerpt: The G1 peptide (CELYENVGMYC [disulfide bonded]) was used as an inhibitor of the interaction of the Grb2 with a SHC phosphopeptide in surface plasmon resonance (Biacore) experiments. The SHC phosphopeptide was attached to the solid surface by incorporation of a biotin at the N-terminus as described in Pelicci, G., et al., "The motogenic and mitogenic responses to HGF are amplified by the Shc adaptor protein," Oncogene, 10: 1631-1638, 1995. This biotinylated phospho-SHC peptide was then bound to the streptavidin on the surface of SA5 chips (Pharmacia-Biacore). The binding was conducted at a 2nM and 5 µl/minute for 10 minutes. The peptides were mixed with 200 nM GST-Grb2 in HBS buffer (Pharmacia Biacore) and allowed to bind for 10 minutes at a flow rate of 5 µl/minute. The Ru change at equilibrium was calculated and the percent of control (no added peptide) binding was calculated.
The G1 peptide was compared to SHC phosphopeptide (DDPSpYVNVQ), G1C-S (SELYENVGMYS), which is similar to G1 but wherein the cysteines are replaced with serines, and SHC control peptide (DDPSYVNVQ), in which the tyrosine is not phosphorated.
Songyang et al. Mol. Cell Biol., 14:2777-2785 (1994). The requirement of these amino acids in the G1 peptide sequence was tested by synthesizing peptides with alanine substitutions at these positions. G1.4Y-A contains an alanine substitution in place of the tyrosine at position 4 (CELAENVGMYC) and G16N-A contains an alanine substitution for the asparagine at position 6 (CELYEAVGMYC). […] The binding of peptide to the Grb2 SH2 domain was measured by surface plasmon resonance (Pharmacia Biacore). The percent inhibition was calculated by comparison of the Rueq in the presence of peptide with the Rueq with no inhibiting peptide present.

cell proliferation = conditions: cited from earlier work
[1] = target: intact GST-Grb2 fusion protein (UniProt P62993); assay: SPR competition in solution, SHC phosphopeptide and G1 for GST-Grb2 compared directly (Figure 6)

| inhibition of Grb2 binding to the SHC phosphopeptide (Grb2 SH2 domain) | inhibiting activity (Grb2 SH2 domain) | fold difference in affinity against SHC phosphopeptide [1] [fold] | Molecule | block of cell proliferation (cell proliferation) |
| --- | --- | --- | --- | --- |
| No inhibition | limited activity |  | CELYEAVGMYC [G16N-A, alanine substitution for the asparagine at position 6] |  |
|  |  | 10 | CELYENVGMYC (disulfide 1-11) [G1 peptide (… [disulfide bonded])] |  |

The remaining lines, values behind:

| Molecule | inhibition of Grb2 binding to the SHC phosphopeptide (Grb2 SH2 domain) | inhibiting activity (Grb2 SH2 domain) | fold difference in affinity against SHC phosphopeptide [1] [fold] | block of cell proliferation (cell proliferation) |
| --- | --- | --- | --- | --- |
| AcpYEEIE |  |  |  | lack of effect |
| CELAENVGMYC [G1.4Y-A, alanine substitution in place of the tyrosine at position 4] | No inhibition | limited activity |  |  |
